Assay results as given in patent publication US9156831B2, “Chemical compounds” (ASTRAZENECA AB, priority 2013, dated 2015).

Tests used:
Experiment in all cases: Cell proliferation assay (MTS)
[1] = system: T24; format: cell-based, human
Description: (§1) The sensitivity of a panel of human cancer cell lines to the effects of compounds was determined in a standard proliferation assay. Cell lines were sourced through the AstraZeneca Cell Bank.
(§2) Cells were plated in 96 well plates at densities of 1000-6000 cells per well in RPMI media containing 10% FBS. After incubation at 37° C. for 16 hours, various concentrations of compound were added to the assay plates. After incubation for an additional 72 h, the viable cells were determined by the addition of MTS reagent (Promega #3582) to each well for 2 h. MTS is a tetrazolium salt that is bioreduced by metabolically active cells in the presence of an electron coupling reagent to formazan. The formazan product was then quantitated by absorbance at 490 nm, as an indicator of the relative number of live cells. In order to determine the GI50 (concentration at which growth of cells was inhibited by 50%) the relative number of cells present at the time of drug addition was determined by comparison with the MTS readout before the drug was added, and this value was subtracted from the 72 hr value of untreated cells as a measure of cell growth during the assay.

[2] = system: PANC1005; format: cell-based, human
Description: (§3) The sensitivity of a panel of human cancer cell lines to the effects of compounds was determined in a standard proliferation assay.
as §2

[3] = system: H526; format: cell-based, human
Description: as §3, §2

[4] = system: RS411; format: cell-based, human
Description: as §3, §2

[5] = system: H460; format: cell-based, human
Description: as §3, §2

[6] = system: 977; format: cell-based, human
Description: as §3, §2

[7] = system: SCABER; format: cell-based, human
Description: as §1, §2

[8] = system: DU145; format: cell-based, human
Description: as §3
(§4) Cells were plated in 96 well plates at densities of 1000-6000 cells per well in RPMI media containing 10% FBS. After incubation at 37° C. for 16 hours, various concentrations of compound were added to the assay plates. After incubation for an additional 72 h, the viable cells were determined by the addition of MTS reagent (Promega #3582) to each well for 2 h. […] The formazan product was then quantitated by absorbance at 490 nm, as an indicator of the relative number of live cells. In order to determine the GI50 (concentration at which growth of cells was inhibited by 50%) the relative number of cells present at the time of drug addition was determined by comparison with the MTS readout before the drug was added, and this value was subtracted from the 72 hr value of untreated cells as a measure of cell growth during the assay.

[9] = system: JEKO1; format: cell-based, human
Description: as §1, §2

[10] = system: PANC0403; format: cell-based, human
Description: as §3, §2

[11] = system: SKMES1; format: cell-based, human
Description: as §3, §2

[12] = system: KATOIII; format: cell-based, human
Description: as §3, §4

[13] = system: PANC0203; format: cell-based, human
Description: as §3, §4

[14] = system: RT11284; format: cell-based, human
Description: as §3, §2

[15] = system: HCT15; format: cell-based, human
Description: as §3, §2

[16] = system: H1703; format: cell-based, human
Description: as §1, §2

[17] = system: ZR751; format: cell-based, human
Description: as §1, §2

[18] = system: SNU398; format: cell-based, human
Description: as §3, §4

[19] = system: RT4; format: cell-based, human
Description: as §3, §4

[20] = system: OCIAML2; format: cell-based, human
Description: as §3, §2

[21] = system: SNU16; format: cell-based, human
Description: as §3, §2

[22] = system: SKHEP1; format: cell-based, human
Description: as §3, §4

[23] = system: IM95M; format: cell-based, human
Description: as §1, §2

[24] = system: OE33; format: cell-based, human
Description: as §3, §4

[25] = system: A549; format: cell-based, human
Description: as §3, §2

[26] = system: MHCC97L; format: cell-based, human
Description: as §1, §2

[27] = system: REH; format: cell-based, human
Description: as §3, §4

[28] = system: H2291; format: cell-based, human
Description: as §1, §2

[29] = system: H2286
Description: as §3, §4

[30] = system: SMMC7721; format: cell-based, human
Description: as §3, §4

[31] = system: H2126; format: cell-based, human
Description: as §1, §2

[32] = system: HT1376; format: cell-based, human
Description: as §1, §2

[33] = system: BT549; format: cell-based, human
Description: as §3, §4

[34] = system: MIAPACA2; format: cell-based, human
Description: as §1, §2

[35] = system: RPM18226; format: cell-based, human
Description: as §3, §4

[36] = system: MDAMB231; format: cell-based, human
Description: as §3, §4

[37] = system: HX147; format: cell-based, human
Description: as §1, §2

[38] = system: JIMT1; format: cell-based, human
Description: as §3, §2

[39] = system: 5637; format: cell-based, human
Description: as §3, §2

[40] = system: CMK; format: cell-based, human
Description: as §3, §2

[41] = system: NOMO1; format: cell-based, human
Description: as §3, §2

[42] = system: KG1; format: cell-based, human
Description: as §3, §2

[43] = system: H226; format: cell-based, human
Description: as §3, §2

[44] = Homo sapiens, Bladder, PIK3CA WT
[45] = Homo sapiens, Blood/lymph, PIK3CA WT

With CCn1nc(C2CCN(C(=O)CCO)CC2)nc1-c1cnc(N)c(-c2nnc(C(C)(C)C)o2)n1 [Example 3, 1-(4-(5-(5-amino-6-(5-tert-butyl-1,3,4-oxadiazol-2-yl)pyrazin-2-yl)-1-ethyl-1H-1,2,4-triazol-3-yl)piperidin-1-yl)-3-hydroxypropan-1-one] the Category [1] was “Resistant (resistant (GI50>1.0 μM))”, the GI50 ([1]; Homo sapiens, T-24, Bladder, PIK3CA WT) was 30 µM and the Category [2] was “Resistant (resistant (GI50>1.0 μM))”. For the same compound, the GI50 ([2]; Homo sapiens, Pancreas, PIK3CA WT) was 2.61 µM, the Category [3] was “Resistant (resistant (GI50>1.0 μM))” and the GI50 ([3]; Homo sapiens, NCI-H526, Lung, PIK3CA WT) was 30 µM. The Category [4] was “Sensitive (sensitive (GI50<=1.0 μM))”, the GI50 ([4]; Homo sapiens, RS4-11, Blood/lymph, PIK3CA WT) was 0.0903 µM and the Category [5] was “Resistant (resistant (GI50>1.0 μM))”. For the same compound, the GI50 ([5]; Homo sapiens, NCI-H460, Lung, PIK3CA MUT) was 30 µM, the Category [6] was “Resistant (resistant (GI50>1.0 μM))” and the GI50 [6, 44] was 4.42 µM. The Category [7] was “Resistant (resistant (GI50>1.0 μM))”, the GI50 [7, 44] was 12.4 µM and the Category [8] was “Resistant (resistant (GI50>1.0 μM))”. For the same compound, the GI50 ([8]; Homo sapiens, DU-145, Prostate, PIK3CA WT) was 8.24 µM, the Category [9] was “Sensitive (sensitive (GI50<=1.0 μM))” and the GI50 ([9]; Homo sapiens, JeKo-1, Blood/lymph, PIK3CA WT) was 0.499 µM. The Category [10] was “Resistant (resistant (GI50>1.0 μM))”, the GI50 ([10]; Homo sapiens, Panc 04.03, Pancreas, PIK3CA WT) was 6.47 µM and the Category [11] was “Resistant (resistant (GI50>1.0 μM))”. The GI50 ([11]; Homo sapiens, SK-MES-1, Lung, PIK3CA WT) was 19.5 µM, the Category [12] was “Resistant (resistant (GI50>1.0 μM))” and the GI50 ([12]; Homo sapiens, KATO III, Stomach, PIK3CA WT) was 9.15 µM. For the same compound, the Category [13] was “Sensitive (sensitive (GI50<=1.0 μM))”, the GI50 ([13]; Homo sapiens, Panc 02.03, Pancreas, PIK3CA WT) was 0.963 µM and the Category [14] was “Resistant (resistant (GI50>1.0 μM))”. The GI50 ([14]; Homo sapiens, RT112/84, Bladder, PIK3CA WT) was 1.17 µM, the Category [15] was “Resistant (resistant (GI50>1.0 μM))” and the GI50 ([15]; Homo sapiens, HCT-15, Colon, PIK3CA MUT) was 7.27 µM. For the same compound, the Category [16] was “Sensitive (sensitive (GI50<=1.0 μM))”, the GI50 ([16]; Homo sapiens, NCI-H1703, Lung, PIK3CA WT) was 0.514 µM and the Category [17] was “Resistant (resistant (GI50>1.0 μM))”. For the same compound, the GI50 ([17]; Homo sapiens, ZR-75-1, Breast, PIK3CA WT) was 3.56 µM, the Category [18] was “Resistant (resistant (GI50>1.0 μM))” and the GI50 ([18]; Homo sapiens, SNU-398, Liver, PIK3CA WT) was 30 µM. The Category [19] was “Resistant (resistant (GI50>1.0 μM))”, the GI50 ([19]; Homo sapiens, RT-4, Bladder, PIK3CA WT) was 8.94 µM and the Category [20] was “Resistant (resistant (GI50>1.0 μM))”. For the same compound, the GI50 ([20]; Homo sapiens, OCI-AML2, Blood/lymph, PIK3CA WT) was 30 µM, the Category [21] was “Resistant (resistant (GI50>1.0 μM))” and the GI50 ([21]; Homo sapiens, SNU-16, Stomach, PIK3CA WT) was 16.8 µM. For the same compound, the Category [22] was “Resistant (resistant (GI50>1.0 μM))”, the GI50 ([22]; Homo sapiens, SK-HEP1, Liver, PIK3CA WT) was 30 µM and the Category [23] was “Sensitive (sensitive (GI50<=1.0 μM))”. For the same compound, the GI50 ([23]; Homo sapiens, Stomach, PIK3CA MUT) was 0.436 µM, the Category [24] was “Resistant (resistant (GI50>1.0 μM))” and the GI50 ([24]; Homo sapiens, Esophagus, PIK3CA WT) was 9.86 µM. The Category [25] was “Resistant (resistant (GI50>1.0 μM))”, the GI50 ([25]; Homo sapiens, Lung, PIK3CA WT) was 10.2 µM and the Category [26] was “Resistant (resistant (GI50>1.0 μM))”. For the same compound, the GI50 ([26]; Homo sapiens, Liver, PIK3CA WT) was 3.35 µM, the Category [27] was “Resistant (resistant (GI50>1.0 μM))” and the GI50 [27, 45] was 1.05 µM. The Category [28] was “Resistant (resistant (GI50>1.0 μM))”, the GI50 ([28]; Homo sapiens, NCI-H2291, Lung, PIK3CA WT) was 3.29 µM and the Category ([29]; H2286) was “Resistant (resistant (GI50>1.0 μM))”. For the same compound, the GI50 ([29]; Homo sapiens, NCI-H2286) was 20 µM, the Category [30] was “Resistant (resistant (GI50>1.0 μM))” and the GI50 ([30]; Homo sapiens, SMMC-7721, Liver, PIK3CA WT) was 30 µM. The Category [31] was “Resistant (resistant (GI50>1.0 μM))”, the GI50 ([31]; Homo sapiens, NCI-H2126, Lung, PIK3CA WT) was 12.9 µM and the Category [32] was “Resistant (resistant (GI50>1.0 μM))”. For the same compound, the GI50 ([32]; Homo sapiens, HT-1376, Bladder, PIK3CA WT) was 8.2 µM, the Category [33] was “Resistant (resistant (GI50>1.0 μM))” and the GI50 ([33]; Homo sapiens, BT-549, Breast, PIK3CA WT) was 17.4 µM. The Category [34] was “Resistant (resistant (GI50>1.0 μM))”, the GI50 ([34]; Homo sapiens, MIA PaCa-2, Pancreas, PIK3CA WT) was 24.2 µM and the Category [35] was “Resistant (resistant (GI50>1.0 μM))”. The GI50 [35, 45] was 30 µM, the Category [36] was “Resistant (resistant (GI50>1.0 μM))” and the GI50 ([36]; Homo sapiens, MDA-MB-231, Breast, PIK3CA WT) was 23.6 µM. The Category [37] was “Resistant (resistant (GI50>1.0 μM))”, the GI50 ([37]; Homo sapiens, Lung, PIK3CA WT) was 30 µM and the Category [38] was “Resistant (resistant (GI50>1.0 μM))”. The GI50 ([38]; Homo sapiens, JIMT-1, Breast, PIK3CA MUT) was 1.46 µM, the Category [39] was “Resistant (resistant (GI50>1.0 μM))” and the GI50 [39, 44] was 9.63 µM. The Category [40] was “Resistant (resistant (GI50>1.0 μM))”, the GI50 [40, 45] was 28.9 µM and the Category [41] was “Resistant (resistant (GI50>1.0 μM))”. The GI50 ([41]; Homo sapiens, NOMO-1, Blood/lymph, PIK3CA WT) was 2.17 µM, the Category [42] was “Resistant (resistant (GI50>1.0 μM))” and the GI50 ([42]; Homo sapiens, KG-1, Blood/lymph, PIK3CA WT) was 6.59 µM. The Category [43] was “Resistant (resistant (GI50>1.0 μM))” and the GI50 ([43]; Homo sapiens, NCI-H226, Lung, PIK3CA WT) was 10.1 µM.
